Assay results published in patent US11872220B2, “Methods and compositions for treating B-cell malignancies” (Janssen Pharmaceutica NV, priority 2021, dated 2024).
“Also recorded” adds a separate entry of the source.

Experiments:
[1] = test system: NF-κB signaling (p-IκBα, Bcl-XL) in CLL cells; assay: Western blot of p-IκBα and Bcl-XL in stimulated CLL cells; assay type: cell-based, human; conditions: 10 μM MALTi, 24 hours
Description: (§1) FIG. 1A is a bar graph showing the results of an experiment in which CLL cells were treated with the indicated drugs and concentrations and incubated for 24 hours. For the BCR stimulation, cells were supplemented with IL-4 and αIgM. […] Bars represent the mean±SEM. FIG. 1B is a bar graph showing the results of an experiment in which CLL cells were labeled with CellTrace Violet and cultured for 5 days on 3T40 supplemented with IL-21 or on 3T3 in combination with CpG, IL-2, IL-15, and IL-21 in combination with 10 μM MALTi. Proliferation was measured using flow cytometry based on CellTrace Violet signal (n=8). […] Afterwards, culture supernatant was collected and IL-6 (n=14) (FIG. 1C), IL-10 (n=13) (FIG. 1D), and TNFα (n=14) (FIG. 1E) levels were measured using commercial ELISA kits. […] Protein lysates were probed for p-IκBα, Bcl-XL, and actin as loading control.
Western blot analysis was performed using standard techniques. […]
(§2) CLL PBMCs were either co-cultured with 3T40 fibroblasts, stimulated with soluble or immobilized anti-IgM (SouthernBiotech, Birmingham, AL, USA) or stimulated with CpG ODN2006 (1 μg/mL) and incubated for 24 hours. Culture supernatant was collected and IL-6, IL-10, and TNFα levels were measured by commercial ELISA kits (Diaclone, Besancon, France). […] Samples were measured on a FACS Canto II cytometer (BD Biosciences, San Jose, CA, USA) and analyzed using FlowJo software.

[2] = test system: CD4+/CD25+/FoxP3+ regulatory T cells; assay: Regulatory T cell population in unstimulated PBMCs, flow cytometry; assay type: cell-based, human; conditions: unstimulated CLL and healthy donor PBMCs, 4 days
Description: (§3) Afterwards, T cell subsets were measured using flow cytometry as described. […] Afterwards, T cell subsets were measured using flow cytometry based on CD27 and CD45RA. Naïve T cells were gated as CD27^+/CD45RA^+, central memory T cells were gated as CD27^+/CD45RA^−, memory T cells were gated as CD27^−/CD45RA^−, and terminally differentiated effector memory cells re-expressing CD45RA T cells were gated as CD27^−/CD45RA^+. […] Afterwards, regulatory T cells were measured using flow cytometry and gated as CD4^+/CD25^+/FoxP3^+. Bars represent the mean±SEM, *p<0.05, ***p<0.001 (paired sample t-test).
(§4) CLL or healthy donor PBMCs were labeled with CFSE or CTV and stimulated with anti-CD3 (clone 1XE) and anti-CD28 (clone 15E8) antibodies for 4 days. Culture supernatant was collected and IFNγ (ThermoFisher) and TNFα (Diaclone) levels were measured by commercial ELISA kits. The activation/proliferation panel consisted of the following antibodies: CD3-μF700 (eBioscience), CD4-PE-Cy7, CD8-PerCpCy5.5, CD25-APC (BD Bioscience). The differentiation panel consisted of the following antibodies: CD27/CCR7-PerCP-eFluor710 or (eBioscience), CD4-PE-Cy7, CD8-BV786, CD25-PE, CD45RA-BV650, and FoxP3-APC (BD Biosciences). […] Samples were measured on a FACS Canto II cytometer (BD Biosciences, San Jose, CA, USA) and analyzed using FlowJo software.

CLL cells [3] = assay: CLL cell viability, flow cytometry with DiOC6 and TO-PRO3; assay type: cell-based, human; conditions: 24 hours, DiOC6 and TO-PRO3 staining
Description: as §1

CLL cells [4] = conditions: CD40-, BCR- or TLR9-stimulated, 10 μM MALTi, BH3 mimetic for additional 24 hours
Description: FIGS. 2A-2C are bar graphs showing the results of experiments in which CLL cells were cultured for 24 hours on 3T40, stimulated with IL-4 and αIgM (soluble or immobilized to beads) or stimulated with CpG, and incubated for 24 hours in combination with 10 μM MALTi. […] FIGS. 2D-2I) are graphs showing the results of experiments in which, in parallel, CD40-stimulated (n=9) (FIGS. 2D-2E), BCR-stimulated (n=8) (FIGS. 2F-2G), and TLR9-stimulated (n=6) (FIGS. 2H-2I) cells were with venetoclax or S63 for an additional 24 hours. Viability was measured using flow cytometry using DiOC6 and TO-PRO3 viability staining. […]
Lymphocytes of CLL patients were co-cultured with NIH3T3 fibroblasts stably transfected with human CD40L (3T40) or negative control (3T3) as described before (Urashima et al., “CD40 Ligand Triggered Interleukin-6 Secretion in Multiple Myeloma,” Blood 85(7):1903-1912 (1995) and Schultze et al., “CD40-Activated Human B Cells: An Alternative Source of Highly Efficient Antigen Presenting Cells to Generate Autologous Antigen-Specific T Cells for Adoptive Immunotherapy,” J. Clin. Invest. 100(11):2757-2765 (1997). After 24 hours, cells were detached and incubated with or without drugs for an additional 24 hours. CLL cell viability was measured by flow cytometry using DioC6 and TO-PRO-3 viability dyes. […]

[5] = test system: IL-10, TNF-α, IL12p70, IL-6 in serum; assay: Serum cytokine secretion in OCI-LY3 tumor bearing mice, Mesoscale assay; assay type: in vivo, NOD/SCID mice
Description: Tumor and Serum Samples Collection on Study Termination. Whole blood samples were collected from all groups at 6 hours post the final dose. Serum samples were isolated from all groups were collected and stored at −80° C. Tumor tissues were collected from all of groups when study was terminated, and split into 2 pieces, take weights, processed to snap frozen and stored in 2 separated tubes.
Tumor and Serum Samples Collection on Study Termination. NF-κB signaling regulates the secretion of multiple cytokines, including interleukin (IL)-6 and IL-10. Secretion of the cytokines (IL-10, TNF-α, IL12p70, and IL-6) in serum samples of OCI-LY3 animals was measured by using a Mesoscale assay (MSD). For in vivo efficacy study, serum samples were isolated from all tumor bearing mice at 6 hours post the final dose of the MALT1 inhibitor of Formula I. For in vivo Pharmacodynamic (PD) experiment, serum samples were isolated from all tumor bearing mice (tumor volume around 700 mm3) at 8 hours post treatment with the MALT1 inhibitor of Formula I (BID dosing). Serum samples were transferred to an MSD plate (V-Plex Proinflammation Panel 1 [human] kit) and incubated for 2 hours at RT followed by a 2-hour incubation with cytokine antibody solution. Plates were read on a SECTOR imager.

[6] = test system: Bcl-2 family members Bcl-XL, Mcl-1 and Bcl-2 in CLL cells; assay: Expression of Bcl-XL, Mcl-1 and Bcl-2 in stimulated CLL cells, intracellular flow cytometry; assay type: cell-based, human; conditions: CD40, BCR or TLR9 stimulation, 10 μM MALTi, 24 hours
Description: Afterwards, expression of Bcl-XL (n=13) (FIG. 2A).
CLL PBMCs were either co-cultured with 3T40 fibroblasts, stimulated with soluble or immobilized anti-IgM (SouthernBiotech, Birmingham, AL, USA) or stimulated with CpG ODN2006 (1 μg/mL) and incubated for 24 hours. Culture supernatant was collected and IL-6, IL-10, and TNFα levels were measured by commercial ELISA kits (Diaclone, Besancon, France). Intracellular flow cytometry staining was performed using Cytofix/Cytoperm according to manufacturer's protocol (BD Biosciences). Cells were stained with the following antibodies: anti-Bcl-XL-FITC, Mcl-1-PE, and Bcl-2-BV421 (BD Biosciences). Samples were measured on a FACS Canto II cytometer (BD Biosciences, San Jose, CA, USA) and analyzed using FlowJo software.

[7] = test system: T cell subsets in CLL and healthy donor PBMCs; assay: T cell differentiation and subset distribution, flow cytometry; assay type: cell-based, human
Description: as §3, §4

[8] = test system: RelB and Bcl10 cleavage in OCI-Ly3 cell line; assay: Activity of MALT1 inhibitor in OCI-Ly3 cell line, inhibition of RelB and Bcl10 cleavage by Western blotting; assay type: cell-based; conditions: 24 hours, with proteasome inhibitor MG132, Western blot
Description: OCI-Ly3 cell lines were cultured for 24 hours in combination with proteasome inhibitor MG132 and indicated concentrations of MALTi. Protein lysates were probed for RelB, Bcl10 and actin or vinculin as loading controls.
Western blot analysis was performed using standard techniques. Membranes were probed with the following antibodies: anti-RelB, p-IκBα, Bcl-XL (Cell Signaling), Bcl10 (Abcam), and actin (Santa Cruz Biotechnology). Odyssey Imager (Li-Cor Biosciences) was used as a detection method according to the manufacturer's protocol.
To test MALT1 inhibition in the context of CLL, we investigated CLL functionality under divergent microenvironmental stimulations. […] Proliferation of CLL cells was induced either via CD40 stimulation in combination with IL-21, or by stimulation with CpG in combination with IL-2, IL-15 and IL-21 ([…]). […] Because of the central role of MALT1 in NF-κB signaling, we investigated known targets of NF-κB such as IL-6, IL-10 and TNFα. Both CD40, BCR and TLR9 stimulation induced cytokine secretion of IL-6, IL-10 and TNFα (FIG. 1C-E). […] The role of MALT1 in the BCR and TLR9 pathway has previously been described, but its role in the CD40 pathway is a new observation.

OCI-LY3 DLBCL CDX model = assay: In vivo efficacy in OCI-LY3 model, tumor growth inhibition; design: species or system NOD/SCID mice; conditions: for tumor growth inhibition (TGI): oral, 12 days post treatment; for in vivo growth of OCI-LY3 DLBCL CDX model (efficacy in words): OCI-LY3 model (CARD11 mut)
[9] = test system: NF-κB-mediated cytokine secretion in CLL cells; assay: Cytokine secretion (IL-6, IL-10, TNFα) of stimulated CLL cells, ELISA; assay type: cell-based, human; conditions: CD40, BCR and TLR9 stimulation, 24 hours
Description: as §1, §2

[10] = test system: CLL-derived and healthy T cells; assay: T cell stimulation with anti-CD3/CD28: activation, proliferation, degranulation, cytokine secretion; assay type: cell-based, human
Description: Afterwards, cells were measured using flow cytometry. FIG. 3A are bar graphs showing T cell activation measured based on CD25. […] FIG. 3C are bar graphs showing T cell proliferation measured based on CellTrace Violet signal. FIG. 3D are bar graphs showing T cell degranulation measured in CLL (n=13) and healthy (n=3) T cells based on CD107a. After incubation, culture supernatant was collected and IFNγ (n=12) and TNFα (n=9) levels were measured using commercial ELISA kits (FIG. 3E).
CLL or healthy donor PBMCs were labeled with CFSE or CTV and stimulated with anti-CD3 (clone 1XE) and anti-CD28 (clone 15E8) antibodies for 4 days. Culture supernatant was collected and IFNγ (ThermoFisher) and TNFα (Diaclone) levels were measured by commercial ELISA kits. The activation/proliferation panel consisted of the following antibodies: CD3-μF700 (eBioscience), CD4-PE-Cy7, CD8-PerCpCy5.5, CD25-APC (BD Bioscience). The differentiation panel consisted of the following antibodies: CD27/CCR7-PerCP-eFluor710 or (eBioscience), CD4-PE-Cy7, CD8-BV786, CD25-PE, CD45RA-BV650, and FoxP3-APC (BD Biosciences). The cytotoxicity panel consisted of the following antibodies: CD107a-FITC (eBioscience), CD4-PerCPeF710, CD8-BV786, CD25-PE, and PD1-PE-Cy7 (BD Biosciences). Samples were measured on a FACS Canto II cytometer (BD Biosciences, San Jose, CA, USA) and analyzed using FlowJo software.

CLL cells [11] = assay: Proliferation of CLL cells, CellTrace Violet; assay type: cell-based, human; conditions: 10 μM MALTi, 5 days; CD40 stimulation + IL-21 or CpG + IL-2, IL-15, IL-21
Description: as §1
CLL PBMCs were labeled with CellTrace Violet and either co-cultured with 3T40 fibroblasts and supplemented with IL-21 (25 ng/mL) or stimulated with CpG ODN2006 (1 μg/mL) and supplemented with IL-2, IL-15, and IL-21 (25 ng/mL). CLL cells were cultured for 5 days. […] Samples were measured on a FACS Canto II cytometer (BD Biosciences, San Jose, CA, USA) and proliferation was analyzed using FlowJo software.

O=C(Nc1ccnc(C(F)(F)F)c1)c1cnn(-c2cccc3c(=O)[nH]ccc23)c1C(F)(F)F [MALT1 inhibitor of Formula I, 1-(1-oxo-1,2-dihydroisoquinolin-5-yl)-5-(trifluoromethyl)-N-[2-(trifluoromethyl)pyridin-4-yl]-1H-pyrazole-4-carboxamide]
Bcl-XL expression, Western blot ([1]; BCR stimulation with soluble or immobilized anti-IgM or TLR9 stimulation via CpG): inhibition of Bcl-XL expression was also observed | p-IκBα and Bcl-XL, Western blot ([1]; CD40-stimulated (3T40) CLL cells): a decrease in p-IκBα and the NF-κB target Bcl-XL | CD4+/CD25+/FoxP3+ T cells [2]: specific significant decrease | direct cell death in CLL cells (viability) (CLL cells [3]): did not induce direct cell death | sensitivity of stimulated CLL cells to venetoclax and S63 with concurrent MALT1 inhibition (CLL cells [4]): a shift towards venetoclax and S63 sensitivity in all these conditions | IL-10, TNF-α, and IL12p70 secretion levels in serum ([5]; 6 hours post final dose): decrease IL-10, TNF-α, and IL12p70 secretion levels; also recorded: downregulate IL-10, TNF-α and IL12p70 secretion | expression of Bcl-XL, flow cytometry [6]: inhibited | expression of Mcl-1 and Bcl-2, flow cytometry [6]: not significantly affected | T cell subset distribution (differentiation) ([7]; stimulated with anti-CD3/CD28, 4 days, increasing concentrations): reverted the T cell subset distribution back to the phenotype seen in unstimulated cells | T cell subset distribution ([7]; unstimulated cells, 4 days): did not affect T cell subset distribution | inhibition of RelB and Bcl10 cleavage [8]: confirmed activity | tumor growth inhibition (TGI) (OCI-LY3 DLBCL CDX model; 30 mg/kg BID): 41.31% | TGI (OCI-LY3 DLBCL CDX model; 30 mg/kg, BID as printed, (second line of Table 4)): 69.92% | TGI (OCI-LY3 DLBCL CDX model; 30 mg/kg, BID, (first line of Table 4)): 41.31% | tumor growth inhibition (TGI) (OCI-LY3 DLBCL CDX model; 100 mg/kg BID): 69.92% | in vivo growth of OCI-LY3 DLBCL CDX model (efficacy in words) (OCI-LY3 DLBCL CDX model): moderately inhibits in vivo growth | NF-κB-mediated cytokine secretion (IL-6, IL-10, TNFα) [9]: decreased NF-κB-mediated cytokine secretion in all conditions and was most effective in CD40-stimulated cells | CD107a (LAMP-1) expression, T cell degranulation ([10]; anti-CD3/CD28, 4 days): reduced | IFNγ and TNFα cytokine secretion ([10]; anti-CD3/CD28, 4 days, ELISA): significantly inhibited | concentrations at which in vitro T cell activation is impaired ([10]; anti-CD3/CD28 stimulated T cells): > 1 µM | T cell activation and proliferation (CD25, PD-1, CellTrace Violet) ([10]; soluble anti-CD3/CD28, 4 days, CD4 and CD8 T cells, CLL and healthy donors): significantly reduced | proliferation of CLL cells (CLL cells [11]): reduced both types of proliferation but did not fully block the proliferation

CC1(C)CCC(CN2CCN(c3ccc(C(=O)NS(=O)(=O)c4ccc(NCC5CCOCC5)c([N+](=O)[O-])c4)c(Oc4cnc5[nH]ccc5c4)c3)CC2)=C(c2ccc(Cl)cc2)C1 [Venetoclax, 4-[4-[[2-(4-chlorophenyl)-4,4-dimethylcyclohexen-1-yl]methyl]piperazin-1-yl]-N-[3-nitro-4-(oxan-4-ylmethylamino)phenyl]sulfonyl-2-(1H-pyrrolo[2,3-b]pyridin-5-yloxy)benzamide, reference compound]
cytokine secretion levels in serum (IL-10, TNFα, IL12p70, IL6) ([5]; monotherapy): didn't show effect | tumor growth inhibition (TGI) (OCI-LY3 DLBCL CDX model; 40 mg/kg QD): 0.98% | TGI (OCI-LY3 DLBCL CDX model; 40 mg/kg, QD): 0.98% | in vivo growth of OCI-LY3 DLBCL CDX model (efficacy in words) (OCI-LY3 DLBCL CDX model): did not show any efficacy
